Experimental data reported in the supplement of paper PMC10307832.

Columns and labels:
Assay in all cases: relative viability (nuclei count vs DMSO), 5 days (fraction); higher = more cells survive
[1] = compound: Cn1c(Nc2ccc(C(F)(F)F)cc2)nc2cc(Oc3ccnc(-c4ncc(C(F)(F)F)[nH]4)c3)ccc21 [RAF265] + CCNC(=O)c1noc(-c2cc(C(C)C)c(O)cc2O)c1-c1ccc(CN2CCOCC2)cc1 [Luminespib] (partner 0.01 µM)
Method in brief: (§1)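 One day after seeding in 1536-well plates, lung cancer cell lines were dosed by pin tool. Dosing was either single-drug or a fixed anchor-drug dose plus five library-drug doses (not always all listed) in √10 steps. After 5 days, nuclei were stained in one fix-and-stain step and counted on 4× images, and relative viability is the nuclei count of treated wells over that of vehicle wells, given as the median of duplicate plates.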

[2] = compound: Cn1c(Nc2ccc(C(F)(F)F)cc2)nc2cc(Oc3ccnc(-c4ncc(C(F)(F)F)[nH]4)c3)ccc21 [RAF265] + C[C@@H](Oc1cc(-c2cnn(C3CCNCC3)c2)cnc1N)c1c(Cl)ccc(F)c1Cl [Crizotinib] (partner 1 µM)
Method in brief: as §1

[3] = compound: Cc1ccc(-n2nc(C(C)(C)C)cc2NC(=O)Nc2ccc(OCCN3CCOCC3)c3ccccc23)cc1 [Doramapimod] + C[C@@H](Oc1cc(-c2cnn(C3CCNCC3)c2)cnc1N)c1c(Cl)ccc(F)c1Cl [Crizotinib] (partner 1 µM)
Method in brief: as §1

[4] = compound: Cn1c(Nc2ccc(C(F)(F)F)cc2)nc2cc(Oc3ccnc(-c4ncc(C(F)(F)F)[nH]4)c3)ccc21 [RAF265] + Nc1nc2[nH]cc(CCc3ccc(C(=O)N[C@@H](CCC(=O)O)C(=O)O)cc3)c2c(=O)[nH]1 [Pemetrexed] (partner 0.2 µM)
Method in brief: as §1

Row | Cell Line | relative viability ([1]; first compound 0.01 µM) | relative viability ([1]; first compound 0.03162 µM) | relative viability ([1]; first compound 0.1 µM) | relative viability ([1]; first compound 0.3162 µM) | relative viability ([1]; first compound 1 µM) | relative viability ([2]; first compound 0.01 µM) | relative viability ([2]; first compound 0.03162 µM) | relative viability ([2]; first compound 0.1 µM) | relative viability ([2]; first compound 0.3162 µM) | relative viability ([2]; first compound 1 µM) | relative viability ([3]; first compound 0.02 µM) | relative viability ([3]; first compound 0.06325 µM) | relative viability ([3]; first compound 0.2 µM) | relative viability ([3]; first compound 0.6325 µM) | relative viability ([3]; first compound 2 µM) | relative viability ([4]; first compound 0.01 µM) | relative viability ([4]; first compound 0.03162 µM) | relative viability ([4]; first compound 0.1 µM) | relative viability ([4]; first compound 0.3162 µM) | relative viability ([4]; first compound 1 µM)
1 | LOU-NH91 | 0.349 | 0.323 | 0.373 | 0.349 | 0.328 | 0.758 | 0.728 | 0.752 | 0.529 | 0.59 | 0.729 | 0.724 | 0.749 | 0.796 | 0.61 | 0.365 | 0.336 | 0.427 | 0.419 | 0.441
2 | LU99A | 0.262 | 0.194 | 0.229 | 0.182 | 0.202 | 0.576 | 0.467 | 0.521 | 0.344 | 0.255 | 0.562 | 0.541 | 0.533 | 0.585 | 0.442 | 0.199 | 0.186 | 0.161 | 0.177 | 0.241
3 | LXF-289 | 0.736 | 0.6 | 0.699 | 0.534 | 0.357 | 0.849 | 0.81 | 0.872 | 0.677 | 0.684 | 0.839 | 0.91 | 0.799 | 0.793 | 0.757 | 0.95 | 0.841 | 0.917 | 0.776 | 0.764
4 | NCI-H522 | 0.984 | 1.26 | 1.27 |  | 0.957 |  |  |  |  |  |  |  |  |  |  | 0.922 | 1.15 | 1.09 | 1.13 | 1
5 | NCI-H727 | 0.332 | 0.345 | 0.6 | 0.383 | 0.263 | 0.8 | 0.727 | 0.967 | 0.598 | 0.283 | 0.973 | 1.06 | 0.862 | 0.643 | 0.759 |  |  |  |  | 
6 | NCI-H1299 |  |  |  |  |  | 0.966 | 0.95 | 0.93 | 0.703 | 0.645 | 0.963 | 0.945 | 0.936 | 1 | 0.902 |  |  |  |  | 
7 | NCI-H1395 | 0.633 | 0.726 | 0.7 | 0.658 | 0.509 |  |  |  |  |  |  |  |  |  |  | 0.893 | 0.878 | 0.824 | 0.65 | 0.683
8 | NCI-H1623 | 0.608 | 0.48 | 0.63 |  | 0.33 |  |  |  |  |  |  |  |  |  |  |  |  |  |  | 
9 | NCI-H1648 |  |  |  |  |  |  |  |  |  |  |  |  |  |  |  | 0.758 | 0.66 | 0.771 | 1.02 | 0.65
10 | NCI-H1703 |  |  |  |  |  | 0.567 | 0.512 | 0.581 | 0.449 | 0.195 | 0.614 | 0.576 | 0.519 | 0.783 | 0.493 |  |  |  |  | 
11 | NCI-H1793 | 0.212 | 0.147 | 0.184 |  | 0.222 |  |  |  |  |  |  |  |  |  |  | 1.07 | 0.774 | 0.553 | 0.234 | 0.412
12 | NCI-H2342 | 0.713 | 0.68 | 0.685 | 0.577 | 0.519 |  |  |  |  |  |  |  |  |  |  | 0.809 | 0.818 | 0.782 | 0.803 | 0.788
13 | SW 900 | 0.204 | 0.182 | 0.169 | 0.154 | 0.145 |  |  |  |  |  |  |  |  |  |  | 0.486 | 0.512 | 0.512 | 0.488 | 0.254
